This is an account of results in ChEMBL document CHEMBL3286108, “Novel arylsulfonamide derivatives with 5-HT₆/5-HT₇ receptor antagonism targeting behavioral and psychological symptoms of dementia” (J Med Chem, 2014).

Data set [1] addresses T1, 5-hydroxytryptamine receptor 2A (Homo sapiens, UniProt P28223). Description: Agonist activity at human recombinant 5-HT2A receptor expressed in CHO-K1 cells by luminescence analysis. In kind it is cell-based.
Data set [2] has as its target T2, 5-hydroxytryptamine receptor 6 (Homo sapiens, UniProt P50406). Description: Antagonist activity at human recombinant 5-HT6 receptor expressed in CHO-K1 cells assessed as inhibition of serotonin-induced response treated 15 to 30 mins before agonist challenge by luminescence analysis. The data set is classed as cell-based.
The target of data set [3] is T3, D(2) dopamine receptor (Homo sapiens, UniProt P14416). Description: Agonist activity at human recombinant D2 receptor expressed in CHO-K1 cells by luminescence analysis. The data set is classed as cell-based.
The target in data set [4] is T4, Muscarinic acetylcholine receptor M1 (Homo sapiens) (UniProt P11229).
T4 sequence (whole entry): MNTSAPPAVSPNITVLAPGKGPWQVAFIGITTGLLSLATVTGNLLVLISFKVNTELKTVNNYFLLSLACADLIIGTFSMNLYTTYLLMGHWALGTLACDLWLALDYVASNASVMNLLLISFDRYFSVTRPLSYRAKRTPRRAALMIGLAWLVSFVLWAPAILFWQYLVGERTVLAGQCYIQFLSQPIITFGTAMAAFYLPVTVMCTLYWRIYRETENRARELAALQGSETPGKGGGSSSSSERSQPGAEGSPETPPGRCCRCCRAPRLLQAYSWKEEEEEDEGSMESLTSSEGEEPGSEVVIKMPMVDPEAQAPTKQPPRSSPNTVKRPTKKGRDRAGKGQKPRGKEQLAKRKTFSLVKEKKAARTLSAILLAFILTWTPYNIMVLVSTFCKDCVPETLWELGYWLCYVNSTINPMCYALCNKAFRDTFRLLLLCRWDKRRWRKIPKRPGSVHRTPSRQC
As to the kind of experiment: Displacement of [3H]pirenzepine from human recombinant M1 receptor expressed in CHO cells at 1 uM. In kind it is cell-based. In general terms: In a radioligand displacement assay an active substance lowers the binding of a labelled ligand.

Data set [5] deals with T2, 5-hydroxytryptamine receptor 6. As to the kind of experiment: biochemical.
Data set [6] concerns the target T3, D(2) dopamine receptor. As to the kind of experiment: biochemical.
Data set [7] concerns the target T5, 5-hydroxytryptamine receptor 7 (Homo sapiens, UniProt P34969). As to the kind of experiment: Antagonist activity at human 5-HT7 receptor expressed in CHO-K1 cells assessed as inhibition of serotonin-induced cAMP accumulation after 60 mins by TR-FRET immunoassay. The data set is classed as functional, cell-based. On the technique in general: cAMP levels reflect the balance of adenylyl cyclase and phosphodiesterase activity.

Data set [8] concerns the target T1, 5-hydroxytryptamine receptor 2A. Description: biochemical. The data set is classed as cell-based, CHO-K1.
Data set [9] deals with T5, 5-hydroxytryptamine receptor 7. Description: biochemical. In kind it is cell-based, CHO-K1.
In data set [10] the target is T1, 5-hydroxytryptamine receptor 2A. As to the kind of experiment: Antagonist activity at human recombinant 5-HT2A receptor expressed in CHO-K1 cells assessed as inhibition of alpha-methyl serotonin-induced response treated 15 to 30 mins before agonist challenge by luminescence analysis. The data set is classed as cell-based.
In data set [11] the target is hERG (KCNH2) potassium channel (Homo sapiens, UniProt Q12809). As to the kind of experiment: in vitro. The following applies: CHO cells expressing human cloned ERG.
The target of data set [12] is T5, 5-hydroxytryptamine receptor 7. As to the kind of experiment: Agonist activity at human 5-HT7 receptor expressed in CHO-K1 cells assessed as cAMP accumulation after 60 mins by TR-FRET immunoassay. The data set is classed as functional, cell-based.
Data set [13] addresses T2, 5-hydroxytryptamine receptor 6. As to the kind of experiment: Agonist activity at human recombinant 5-HT6 receptor expressed in CHO-K1 cells by luminescence analysis. In kind it is cell-based.
For data set [14], the target named is 5-hydroxytryptamine receptor 2C (Homo sapiens, UniProt P28335). As to the kind of experiment: biochemical.
Data set [15] deals with Muscarinic acetylcholine receptor M5 (Homo sapiens, UniProt P08912). As to the kind of experiment: Displacement of [3H]4-DAMP from human recombinant M5 receptor expressed in CHO cells. The data set is classed as cell-based.

Calls of active or inactive are those of the source. The calls are words filed in the database; no cut-off is given here.

T5 sequence (P34969 whole entry): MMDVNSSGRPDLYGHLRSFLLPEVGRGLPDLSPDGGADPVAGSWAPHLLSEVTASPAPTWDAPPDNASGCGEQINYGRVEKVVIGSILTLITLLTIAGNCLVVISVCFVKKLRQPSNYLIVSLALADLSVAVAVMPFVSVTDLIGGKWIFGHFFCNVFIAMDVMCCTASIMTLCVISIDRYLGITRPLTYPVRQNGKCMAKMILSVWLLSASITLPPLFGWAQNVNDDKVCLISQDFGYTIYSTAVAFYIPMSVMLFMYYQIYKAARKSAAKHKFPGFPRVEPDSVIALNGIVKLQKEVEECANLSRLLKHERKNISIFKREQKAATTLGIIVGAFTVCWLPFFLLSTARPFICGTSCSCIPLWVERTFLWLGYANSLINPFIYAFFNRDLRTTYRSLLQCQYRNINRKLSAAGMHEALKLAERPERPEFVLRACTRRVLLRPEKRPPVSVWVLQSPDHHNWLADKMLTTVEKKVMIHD
Sequence of hERG (KCNH2) potassium channel (Q12809 whole entry): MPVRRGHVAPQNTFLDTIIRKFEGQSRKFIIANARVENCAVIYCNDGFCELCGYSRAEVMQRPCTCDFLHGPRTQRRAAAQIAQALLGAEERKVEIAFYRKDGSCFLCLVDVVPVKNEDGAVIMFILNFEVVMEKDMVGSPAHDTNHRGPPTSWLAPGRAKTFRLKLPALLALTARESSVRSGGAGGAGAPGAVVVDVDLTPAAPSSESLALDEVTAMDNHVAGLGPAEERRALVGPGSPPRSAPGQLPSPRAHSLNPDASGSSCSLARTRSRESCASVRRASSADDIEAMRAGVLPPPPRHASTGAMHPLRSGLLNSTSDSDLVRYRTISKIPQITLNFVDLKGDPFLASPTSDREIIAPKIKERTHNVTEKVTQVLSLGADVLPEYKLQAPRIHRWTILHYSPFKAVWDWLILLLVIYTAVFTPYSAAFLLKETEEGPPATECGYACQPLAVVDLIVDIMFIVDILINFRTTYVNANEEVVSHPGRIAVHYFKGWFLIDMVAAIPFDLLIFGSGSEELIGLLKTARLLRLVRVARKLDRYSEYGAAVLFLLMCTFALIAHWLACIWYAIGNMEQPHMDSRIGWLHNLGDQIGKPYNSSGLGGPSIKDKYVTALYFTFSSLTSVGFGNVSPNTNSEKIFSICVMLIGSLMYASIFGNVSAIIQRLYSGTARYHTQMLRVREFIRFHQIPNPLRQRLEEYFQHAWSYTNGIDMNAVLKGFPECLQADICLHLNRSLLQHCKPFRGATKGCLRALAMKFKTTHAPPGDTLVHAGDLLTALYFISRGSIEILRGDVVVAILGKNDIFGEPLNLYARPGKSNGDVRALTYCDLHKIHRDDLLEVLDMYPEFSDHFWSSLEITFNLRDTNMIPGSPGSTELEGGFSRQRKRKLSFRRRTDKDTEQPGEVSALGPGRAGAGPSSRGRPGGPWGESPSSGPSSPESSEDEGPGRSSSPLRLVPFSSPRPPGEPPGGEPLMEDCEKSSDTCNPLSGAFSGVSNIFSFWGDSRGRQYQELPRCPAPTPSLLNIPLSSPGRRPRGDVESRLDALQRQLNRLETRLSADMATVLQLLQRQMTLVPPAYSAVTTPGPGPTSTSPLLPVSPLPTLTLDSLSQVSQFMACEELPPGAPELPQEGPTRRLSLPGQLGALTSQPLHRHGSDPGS
T2 sequence (P50406 whole entry): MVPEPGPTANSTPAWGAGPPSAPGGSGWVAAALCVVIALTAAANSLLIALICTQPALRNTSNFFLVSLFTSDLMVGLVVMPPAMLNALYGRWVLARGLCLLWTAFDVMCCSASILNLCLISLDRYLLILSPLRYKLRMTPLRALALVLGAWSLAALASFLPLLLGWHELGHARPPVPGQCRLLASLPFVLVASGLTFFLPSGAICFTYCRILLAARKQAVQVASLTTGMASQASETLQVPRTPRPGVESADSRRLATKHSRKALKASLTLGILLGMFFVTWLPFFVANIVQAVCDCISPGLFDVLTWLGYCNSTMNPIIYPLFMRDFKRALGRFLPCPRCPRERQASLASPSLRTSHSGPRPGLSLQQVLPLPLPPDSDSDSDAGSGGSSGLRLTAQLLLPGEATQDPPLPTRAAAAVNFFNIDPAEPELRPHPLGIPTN
T3 sequence (P14416 whole entry): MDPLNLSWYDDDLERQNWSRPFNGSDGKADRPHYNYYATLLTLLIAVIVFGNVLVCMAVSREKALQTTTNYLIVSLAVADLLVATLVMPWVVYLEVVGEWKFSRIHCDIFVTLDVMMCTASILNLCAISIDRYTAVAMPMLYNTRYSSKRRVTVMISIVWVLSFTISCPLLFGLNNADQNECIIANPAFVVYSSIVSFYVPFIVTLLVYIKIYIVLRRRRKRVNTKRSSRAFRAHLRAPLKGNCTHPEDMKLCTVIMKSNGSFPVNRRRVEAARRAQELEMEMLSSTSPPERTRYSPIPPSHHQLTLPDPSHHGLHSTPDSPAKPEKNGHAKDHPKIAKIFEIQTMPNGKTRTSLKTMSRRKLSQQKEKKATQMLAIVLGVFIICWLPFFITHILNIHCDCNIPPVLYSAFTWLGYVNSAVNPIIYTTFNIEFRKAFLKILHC
T1 sequence (P28223 whole entry): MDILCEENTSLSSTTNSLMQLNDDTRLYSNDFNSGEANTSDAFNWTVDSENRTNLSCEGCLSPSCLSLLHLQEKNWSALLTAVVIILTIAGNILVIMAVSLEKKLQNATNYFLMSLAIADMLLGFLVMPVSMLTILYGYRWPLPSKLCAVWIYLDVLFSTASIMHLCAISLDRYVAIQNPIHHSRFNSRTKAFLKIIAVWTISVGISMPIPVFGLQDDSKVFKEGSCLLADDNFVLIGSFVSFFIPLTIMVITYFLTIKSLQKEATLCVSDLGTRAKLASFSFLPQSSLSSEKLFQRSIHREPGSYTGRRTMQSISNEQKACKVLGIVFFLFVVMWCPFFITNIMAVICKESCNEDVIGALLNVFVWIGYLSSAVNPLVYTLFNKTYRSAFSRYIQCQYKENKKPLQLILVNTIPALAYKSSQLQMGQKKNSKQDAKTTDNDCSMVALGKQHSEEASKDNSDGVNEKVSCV
Sequence of 5-hydroxytryptamine receptor 2C (P28335 whole entry): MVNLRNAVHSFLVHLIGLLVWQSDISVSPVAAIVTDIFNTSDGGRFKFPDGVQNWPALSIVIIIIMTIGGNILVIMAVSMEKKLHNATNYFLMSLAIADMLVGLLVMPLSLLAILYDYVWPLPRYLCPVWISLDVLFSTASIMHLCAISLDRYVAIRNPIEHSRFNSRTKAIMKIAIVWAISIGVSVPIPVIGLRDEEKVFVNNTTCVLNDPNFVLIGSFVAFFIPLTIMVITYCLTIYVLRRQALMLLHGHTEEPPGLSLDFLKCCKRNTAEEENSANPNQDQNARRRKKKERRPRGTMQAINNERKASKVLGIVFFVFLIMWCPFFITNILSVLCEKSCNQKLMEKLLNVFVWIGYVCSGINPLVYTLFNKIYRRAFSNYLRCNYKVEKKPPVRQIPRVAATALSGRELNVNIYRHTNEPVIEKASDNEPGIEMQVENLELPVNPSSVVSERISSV
Sequence of Muscarinic acetylcholine receptor M5 (P08912 whole entry): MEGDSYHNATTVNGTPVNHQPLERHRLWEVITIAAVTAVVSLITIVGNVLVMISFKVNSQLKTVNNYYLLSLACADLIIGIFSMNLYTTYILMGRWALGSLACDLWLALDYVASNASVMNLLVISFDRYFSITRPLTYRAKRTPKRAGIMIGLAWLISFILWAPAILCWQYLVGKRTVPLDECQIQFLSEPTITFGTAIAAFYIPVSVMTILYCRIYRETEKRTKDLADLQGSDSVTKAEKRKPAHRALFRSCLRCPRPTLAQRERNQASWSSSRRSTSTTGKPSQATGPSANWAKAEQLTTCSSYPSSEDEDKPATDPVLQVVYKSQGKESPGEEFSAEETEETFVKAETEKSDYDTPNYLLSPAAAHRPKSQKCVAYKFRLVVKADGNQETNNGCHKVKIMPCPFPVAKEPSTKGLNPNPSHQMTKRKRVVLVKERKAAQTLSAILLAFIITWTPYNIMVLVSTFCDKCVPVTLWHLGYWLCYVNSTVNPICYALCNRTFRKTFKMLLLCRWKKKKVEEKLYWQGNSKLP

Consider `O=S(=O)(NCCCCN1CCN(c2noc3ccccc23)CC1)c1ccc2ccccc2c1`, for which the outcome in data set [1], in [3], in [12] and in [13] was inactive. The results for the antagonist equilibrium constant (Kb) in data set [2], in data set [7] and in data set [10] were 11 nM, 9.2 nM and 11 nM, respectively. In [4], the inhibition – broadly, the change of the read-out against control, counted positive when it falls – is -3%. Also, the Ki (in general, the equilibrium dissociation constant of an inhibitor or competing ligand from its target) in data set [5] turned out to be 6.2 nM; in [6], 15 nM; in data set [8], 0.7 nM; in data set [9], 0.8 nM. The inhibition at 1 µM in data set [11] worked out at 0%.

On to `O=S(=O)(NCCCCN1CCC(c2noc3cc(F)ccc23)CC1)c1ccc2ccccc2c1`, for which the outcome in data set [1], in data set [3], in [12] and in [13] was inactive. For the same compound, the Kb (in general, the equilibrium dissociation constant of an antagonist, usually derived from a functional assay) came out at 3.8 nM in [2], 8.8 nM in data set [7] and 14 nM in data set [10]. The inhibition in data set [4] is 0%. The Ki in data set [5] is 2.4 nM; in data set [6], 1.1 nM; in data set [8], 1.7 nM; in [9], 1.4 nM. Also, in [11], the inhibition at 1 µM was 30%.

As for `O=S(=O)(NCCCCN1CCC(c2noc3cc(F)ccc23)CC1)c1cc2ccc(Cl)cc2s1`, the result in data set [1], in data set [3], in data set [12] and in data set [13] was inactive. The Kb in [2] is 21 nM; in data set [7], 2.8 nM; in data set [10], 55 nM. The inhibition in [4] was found to be 23%. In addition, the Ki was 3.3 nM in data set [5], 1.2 nM in data set [6], 0.8 nM in [8] and 1.3 nM in data set [9]. In data set [11], the inhibition at 1 µM was 18%.

`Cc1c(S(=O)(=O)NCCCCN2CCC(c3noc4cc(F)ccc34)CC2)sc2ccc(F)cc12`: the result in [1], in data set [3], in data set [12] and in [13] was inactive. Besides, the Kb in [2] was 14 nM; in data set [7] it was 2.2 nM; in data set [10] it was 5 nM. Besides, the inhibition in data set [4] came out at 22%. Besides, the inhibitory constant (Ki) in [5] was determined as 3.4 nM; in data set [6], 1.9 nM; in data set [8] it was 0.7 nM; in data set [9] it was 0.2 nM. In data set [11], the inhibition at 1 µM came to 14%.

Turning to `Cc1c(S(=O)(=O)NCCCCN2CCC(c3noc4cc(F)ccc34)CC2)sc2ccc(Cl)cc12`, the result in [1], in data set [3], in [12] and in data set [13] was inactive. Further, the Kb in [2] turned out to be 22 nM; in data set [7] it was 5.6 nM; in data set [10], 9.5 nM. In addition, in [4], the inhibition amounted to 19%. In addition, the Ki in [5] stood at 1.8 nM; in [6], 1.5 nM; in data set [8], 1 nM; in data set [9], 0.7 nM. Besides, in data set [11], the inhibition at 1 µM was determined as 0%.

Regarding `O=S(=O)(NCCCCN1CCC(c2noc3cc(F)ccc23)CC1)c1ccc2cc(Cl)ccc2c1`, the result in [1], in data set [3], in [12] and in [13] was inactive. In addition, the Kb in data set [2] is 8.3 nM; in data set [7], 1 nM; in [10], 6.5 nM. Moreover, the Ki was determined as 2.4 nM in data set [5], 1 nM in data set [6], 0.6 nM in data set [8] and 3.2 nM in [9].

`O=S(=O)(NCCCCN1CCN(c2nsc3ccccc23)CC1)c1ccc2ccccc2c1`: the result in data set [1], in data set [3], in [12] and in data set [13] was inactive. For the same compound, the Kb in data set [2] turned out to be 7.6 nM; in data set [7], 44 nM; in data set [10], 110 nM. Moreover, the inhibition in [4] is -5%. Moreover, the Ki in [5] is 5 nM; in [6] it was 0.9 nM; in [8] it was 1.5 nM; in [9], 1.8 nM. In data set [11], the inhibition at 1 µM was 14%.

Compound `COc1cc(OC)c(C(=O)CCCCN2CCC3(CC2)NC(=O)NC3=O)cc1NS(=O)(=O)c1ccc(C(F)(F)F)cc1` [RS-102,221] displayed a Ki in data set [14] of 0.6 nM.

Consider `O=S(=O)(NCCCN1CCC(c2noc3cc(F)ccc23)CC1)c1ccc(Cl)c(Cl)c1`, for which the result in [1], in [3], in data set [12] and in [13] was inactive. Moreover, the Kb in data set [2] turned out to be 12 nM; in data set [7], 2.1 nM; in [10], 23 nM. For the same compound, the inhibition in data set [4] is -3%. Besides, the Ki in data set [5] amounted to 7.1 nM; in data set [6], 14 nM; in data set [8] it was 2.2 nM; in [9] it was 1.2 nM. For the same compound, in data set [11], the inhibition at 1 µM came to 69%.

Regarding `O=S(=O)(NCCCN1CCC(c2noc3cc(F)ccc23)CC1)c1ccc(F)c(Cl)c1`, the result in data set [1], in data set [3], in data set [12] and in data set [13] was inactive. Besides, the Kb was 7.4 nM in data set [2], 0.8 nM in [7] and 7 nM in [10]. Further, in [4], the inhibition is -8%. In addition, the Ki in data set [5] amounted to 1.6 nM; in data set [6] it was 3.7 nM; in data set [8] it was 1.5 nM; in data set [9] it was 0.9 nM. For the same compound, the inhibition at 1 µM in data set [11] is 32%.

For `C[N+]1(C)CCC(OC(=O)C(c2ccccc2)c2ccccc2)CC1` [4-DAMP], in [15], the Ki came to 0.48 nM.

Turning to `O=S(=O)(NCCCCN1CCC(c2noc3cc(F)ccc23)CC1)c1cccc2ccccc12`, the result in data set [1], in data set [3], in data set [12] and in data set [13] was inactive. Besides, the antagonist equilibrium constant (Kb) in [2] was 17 nM; in data set [7], 3 nM; in data set [10], 76 nM. Moreover, the inhibition in data set [4] was 0%. In addition, the Ki was found to be 8.8 nM in [5], 3 nM in [6], 0.6 nM in [8] and 0.8 nM in data set [9]. In addition, the inhibition at 1 µM in [11] stood at 24%.

`O=S(=O)(NCCCN1CCN(c2noc3ccccc23)CC1)c1ccc(OC(F)(F)F)cc1`: the inhibition in data set [4] is 3%. In addition, the inhibitory constant (Ki) worked out at 2200 nM in [5], 63 nM in data set [6], 950 nM in data set [8] and 380 nM in [9]. For the same compound, the inhibition at 1 µM in data set [11] amounted to 10%.

Turning to `Cc1cccc(S(=O)(=O)NCCCN2CCC(c3noc4cc(F)ccc34)CC2)c1`, the result in data set [1], in [3], in [12] and in data set [13] was inactive. Besides, the figures for the Kb in data set [2], in data set [7] and in [10] were 2.5 nM, 0.5 nM and 15 nM, respectively. The inhibition in data set [4] came out at 1%. Besides, the Ki in [5] is 13 nM; in data set [6] it was 16 nM; in data set [8] it was 3.7 nM; in data set [9], 0.6 nM. In addition, in data set [11], the inhibition at 1 µM came to 52%.
